Source: patent US5827866A, “Peptidyl heterocycles useful in the treatment of thrombin related disorders” (Ortho Pharmaceutical Corporation, priority 1995, dated 1998)

Assay: not given
Details: rat, in vivo, iv

| SMILES | t1/2 [min] |
| --- | --- |
| CN[C@H](Cc1ccccc1)C(=O)N1CCC[C@H]1C(=O)N[C@@H](CCCNC(=N)N)C(=O)c1nc2ccccc2s1 [Compound 1, N-METHYL-D-PHENYLALANYL-N-[4-[(AMINOIMINOMETHYL)AMINO]-1S-[(BENXOTHIAZOL-2- YL)CARBONYL]BUTYL]-L-PROLINAMIDE] | 19 |
| CNC(Cc1ccccc1)C(=O)N1CCCC1C(=O)NC(CCCNC(=N)N)C(=O)c1nccs1 (centres unmarked) [Compound 4] | 16 |
| CN[C@H](Cc1ccccc1)C(=O)N1CCC[C@H]1C(=O)N[C@@H](CCCNC(=N)N)C(=O)c1nc2ccc(C(=O)OC)cc2s1 [Compound 12] | 43 |
| CN[C@H](Cc1ccccc1)C(=O)N1CCC[C@H]1C(=O)N[C@@H](CCCNC(=N)N)C(=O)c1nc2ccc(C(=O)O)cc2s1 [Compound 13] | 25 |
| CN[C@H](Cc1ccccc1)C(=O)N1CCC[C@H]1C(=O)N[C@@H](CCCNC(=N)N)C(=O)c1nc2ccc(CO)cc2s1 [Compound 15] | 16 |
| CN[C@H](Cc1ccccc1)C(=O)N1CCC[C@H]1C(=O)N[C@@H](CCCNC(=N)N)C(=O)c1nc2ccc(F)cc2s1 [Compound 17] | 8 |
| CCOC(=O)c1csc(C(=O)[C@H](CCCNC(=N)N)NC(=O)[C@@H]2CCCN2C(=O)[C@@H](Cc2ccccc2)NC)n1 [Compound 19] | 14 |
| CNC(Cc1ccccc1)C(=O)N1CCCC1C(=O)NC(CCCNC(=N)N)C(=O)c1nc2ccccc2[nH]1 (centres unmarked) [Compound 21] | 5 |
| CN[C@H](CC1CCCCC1)C(=O)N1CCC[C@H]1C(=O)N[C@@H](CCCNC(=N)N)C(=O)c1nc2ccccc2s1 [Compound 29, N-METHYL-D-CYCLOHEXYLALANYL-N-[4-[(AMINOIMINOMETHYL)AMINO]-1S-[(BENXOTHIAZOL-2-YL)CARBONYL]BUTYL]-L-PROLINAMIDE] | 14 |
| CN[C@H](Cc1c(F)c(F)c(F)c(F)c1F)C(=O)N1CCC[C@H]1C(=O)N[C@@H](CCCNC(=N)N)C(=O)c1nc2ccccc2s1 [Compound 30] | 6 |
| CN[C@H](Cc1ccc(F)cc1)C(=O)N1CCC[C@H]1C(=O)N[C@@H](CCCNC(=N)N)C(=O)c1nc2ccccc2s1 [Compound 32, N-METHYL-D-(4-FLUOROPHENYL)ALANYL-N-[4-[(AMINOIMINOMETHYL)AMINO)-1S-[(BENXOTHIAZOL-2-YL)CARBONYL]BUTYL]-L-PROLINAMIDE] | 19 |
| CNC(C(=O)N1CCCC1C(=O)NC(CCCNC(=N)N)C(=O)c1nc2ccccc2s1)c1ccccc1 [Compound 33, N-METHYL-D-PHENYLGLYCYL-N-[4-[(AMINOIMINOMETHYL)AMINO]-1S-[(BENXOTHIAZOL-2- YL)CARBONYL]BUTYL]-L-PROLINAMIDE] | 18 |
| CC(=O)N[C@H](Cc1ccccc1)C(=O)N1CCC[C@H]1C(=O)N[C@@H](CCCNC(=N)N)C(=O)c1nc2ccccc2s1.O=C(O)C(F)(F)F [Compound 35] | 11 |
| CN[C@@H](C(=O)N1CCC[C@H]1C(=O)N[C@@H](CCCNC(=N)N)C(=O)c1nc2ccccc2s1)C1CCCCC1 [Compound 37, N-METHYL-D-CYCLOHEXYLGLYCYL-N-[4-[(AMINOIMINOMETHYL)AMINO]-1S-[(BENXOTHIAZOL-2-YL)CARBONYL]BUTYL]-L-PROLINAMIDE] | 42 |
| CN[C@H](Cc1ccccc1)C(=O)N1CCC[C@H]1C(=O)N[C@@H](CCCNC(=N)N)C(=O)c1nc2c(s1)CCCC2 [Compound 51] | 17 |
| CN[C@H](Cc1ccccc1)C(=O)N1CCC[C@H]1C(=O)N[C@@H](CCCNC(=N)N)C(=O)c1nc2ccc3ccccc3c2s1 [Compound 52] | 8 |
| CN[C@H](Cc1ccccc1)C(=O)N1CCC[C@H]1C(=O)N[C@@H](CCCNC(=N)N)C(=O)c1nc(C(=O)O)cs1 [Compound 54] | 15 |

Assay: Ex vivo bioavailability assay (i.v. and p.o.)
Set-up: species or system male rats
Details: rat, p.o. vs i.v.; drug in plasma extrapolated from thrombin inhibition
Method: Bioavailability was determined by an ex vivo assay which incorporated hydrolysis rates from drug administered both i.v. and p.o. In this assay male rats were prepared as described above with a teflon tube implanted in their femoral artery.
A standard curve was generated by adding of drug or vehicle (100 μL) to whole blood (900 μL) followed by incubating (5 min) and centrifuging to obtain plasma. The percentage of thrombin inhibition was calculated by comparing the V0 of the vehicle to that of the drug treated samples. Datum from several runs were normalized with a statistical package (SAS) to generate a standard curve.
The percentage of thrombin inhibition in the treated animals was calculated by comparing the V0 prior to treatment with the V0 obtained from samples collected after treatment. The percent inhibition was applied to the standard curve (generated above) using the statistical package (SAS) and the quantity of drug in the sample was extrapolated.
Bioavailability (Bioavail.) was calculated from the plots of the extrapolated drug in sample vs. time for both i.v. and p.o. administration using the following equation:
%Bioavail. =([…])×(area
under p.o. curve/area under curve i.v.)

| SMILES | Bloavail, [%] |
| --- | --- |
| CN[C@H](Cc1ccccc1)C(=O)N1CCC[C@H]1C(=O)N[C@@H](CCCNC(=N)N)C(=O)c1nc2ccccc2s1 [Compound 1, N-METHYL-D-PHENYLALANYL-N-[4-[(AMINOIMINOMETHYL)AMINO]-1S-[(BENXOTHIAZOL-2- YL)CARBONYL]BUTYL]-L-PROLINAMIDE] | 1.2 |

Assay: Ex vivo i.v. assay for duration of action (time to half plasma elimination)
Details: rat, from slope of Vo vs. time of plasma thrombin inhibition
Method: An ex vivo assay was conducted to determine the duration of action of the compounds of Formula I. For this i.v. assay male rats (Long Evans, 350-500 g) were implanted with a teflon cannulae via the femoral artery while under anesthesia (pentobarbital i.p., 35 mg/kg). […] The animals were allowed to recover for at least 24 h after the surgical procedure.
The test compound was dispersed in water and delivered to the animal (0.25 mL) via the femoral vein. […] A plasma sample was obtained by centrifuging the blood at 10,000 rpm for 5 min. This sample is analyzed for thrombin inhibition using the chromogenic assay, described below.
Datum was collected over a 30 min period and the initial rate of substrate hydrolysis (V0 (mOD/min)) was calculated with an analysis program (Softmax, Molecular Devices).
The time to half plasma elimination (t 1/2) was calculated from the slope of Vo vs. time, using the following equation:

| SMILES | t1/2 [min] |
| --- | --- |
| CN[C@H](Cc1ccccc1)C(=O)N1CCC[C@H]1C(=O)N[C@@H](CCCNC(=N)N)C(=O)c1nc2ccc(O)cc2s1 [Compound 25] | 14 |
| CNC(C(=O)N1CCC[C@H]1C(=O)N[C@@H](CCCNC(=N)N)C(=O)c1nc2ccccc2s1)c1ccccc1 (some centres unmarked) [Compound 34] | 26 |
